# Measurements from patent US4695545A, “Culture and process for producing A41030 antibiotics” (Eli Lilly and Company, priority 1984, dated 1987).
# How the values were obtained:
# [1] = tested on: Bacteroides thetaiotaomicron; test: MIC anaerobic bacteria, agar-dilution; format: cell-based; details: Bacteroides thetaiotaomicron 1438
# Bacteroides fragilis = test: MIC anaerobic bacteria, agar-dilution; format: cell-based
# [2] = tested on: Streptococcus sp. Group D; test: MIC aerobic bacteria, standard agar-dilution assay; format: cell-based
# Haemophilus influenzae = test: MIC aerobic bacteria, standard agar-dilution assay; format: cell-based
# [3] = Electrometric titration (pKa); format: physicochemical; details: electrometric titration in 66% dimethylformamide in water; stated as possible
# Source text: Antibiotic A41030 factor A is a white, crystalline solid.
# Solubility in solvents = format: physicochemical; details: qualitative
# Source text: As many as seven antibiotic factors are recovered from the fermentation and are obtained as a mixture, the A41030 complex. It will be recognized that the ratio of the factors in the A41030 complex will vary, depending upon the fermentation conditions used. The individual factors A, B, C, D, E, F, and G are separated and isolated as individual compounds, as hereinafter described.
# [4] = tested on: Staphylococcus epidermidis; test: MIC aerobic bacteria, standard agar-dilution assay; format: cell-based; details: Staphylococcus epidermidis EPI1, 24 hours
# Peptococcus prevoti = test: MIC anaerobic bacteria, agar-dilution; format: cell-based; details: Peptococcus prevoti 1281
# [5] = tested on: Peptostreptococcus anaerobius; test: MIC anaerobic bacteria, agar-dilution; format: cell-based; details: Peptostreptococcus anaerobius 1428
# Clostridium septicum = test: MIC anaerobic bacteria, agar-dilution; format: cell-based; details: Clostridium septicum 1128
# Streptococcus pneumoniae = test: MIC aerobic bacteria, standard agar-dilution assay; format: cell-based; details: Streptococcus pneumoniae Park I, 24 hours
# Eubacterium aerofaciens = test: MIC anaerobic bacteria, agar-dilution; format: cell-based; details: Eubacterium aerofaciens 1235
# Bacteroides corrodens = test: MIC anaerobic bacteria, agar-dilution; format: cell-based; details: Bacteroides corrodens 1874
# Staphylococcus aureus = test: MIC aerobic bacteria, standard agar-dilution assay; format: cell-based; details: Staphylococcus aureus S13E; agar-dilution, 24 hours
# Clostridium difficile [6] = test: MIC against Clostridium difficile strains, agar-dilution; format: cell-based
# Source text: The A41030 antibiotic factors A, B, C, D, E, F, and G, are also active against a number of strains of Clostridium difficile, as determined by the agardilution method.
# Streptococcus pyogenes = test: MIC aerobic bacteria, standard agar-dilution assay; format: cell-based; details: Streptococcus pyogenes C203, 24 hours
# [7] = tested on: Peptostreptococcus intermedius; test: MIC anaerobic bacteria, agar-dilution; format: cell-based; details: Peptostreptococcus intermedius 1264
# [8] = tested on: Fusobacterium necrophorum; test: MIC anaerobic bacteria, agar-dilution; format: cell-based; details: Fusobacterium necrophorum 6054A
# Propionibacterium acnes = test: MIC anaerobic bacteria, agar-dilution; format: cell-based; details: Propionibacterium acnes 79; agar-dilution (Table 9)
# Clostridium perfringens = format: cell-based; details: Clostridium perfringens 81; agar-dilution
# [9] = tested on: Bacteroides melaninogenicus; test: MIC anaerobic bacteria, agar-dilution; format: cell-based; details: Bacteroides melaninogenicus 2736
# Clostridium difficile [10] = test: MIC anaerobic bacteria, agar-dilution; format: cell-based; details: Clostridium difficile 2994; agar-dilution (Table 9)
# Fusobacterium symbiosum = test: MIC anaerobic bacteria, agar-dilution; format: cell-based; details: Fusobacterium symbiosum 1470
# Bacteroides vulgatis = test: MIC anaerobic bacteria, agar-dilution; format: cell-based; details: Bacteroides vulgatis 1211
# [11] = tested on: Peptococcus asaccharolyticus; test: MIC anaerobic bacteria, agar-dilution; format: cell-based; details: Peptococcus asaccharolyticus 1302
# [12] = Streptococcus sp. Group D 9960, 24 hours
# [13] = Streptococcus sp. Group D X66, 24 hours
# [14] = Haemophilus influenzae 76, 24 hours
# [15] = Haemophilus influenzae C.L., 24 hours
substance,measurement,setting,value
A41030 factor F,MIC,[1],64 µg/mL
same,MIC,Bacteroides fragilis; Bacteroides fragilis 111,32 µg/mL
same,MIC,Bacteroides fragilis; Bacteroides fragilis 1877,32 µg/mL
same,MIC,Bacteroides fragilis; Bacteroides fragilis 1936B,32 µg/mL
same,MIC,[2]; [12],4 µg/mL
same,MIC,[2]; [13],4 µg/mL
same,MIC,Haemophilus influenzae; [14],32 µg/mL
same,MIC,Haemophilus influenzae; [15],32 µg/mL
same,possibly additional pKa's,[3],> 10
same,solubility (solvents),Solubility in solvents,soluble in the same solvents as factor A
same,MIC,[4],0.25 µg/mL
same,MIC,Peptococcus prevoti,32 µg/mL
same,MIC,[5],32 µg/mL
same,MIC,Clostridium septicum,1.0 µg/mL
same,MIC,Streptococcus pneumoniae,2 µg/mL
same,MIC,Eubacterium aerofaciens,1.0 µg/mL
same,MIC,Bacteroides corrodens,32 µg/mL
same,MIC,Staphylococcus aureus,1 µg/mL
same,MIC,Clostridium difficile [6]; Clostridium difficile 78,1.0 µg/mL
same,MIC,Clostridium difficile [6]; Clostridium difficile 107B,1.0 µg/mL
same,MIC,Clostridium difficile [6]; Clostridium difficile 111F,2 µg/mL
same,MIC,Clostridium difficile [6]; Clostridium difficile 1153,2 µg/mL
same,MIC,Clostridium difficile [6]; Clostridium difficile 2634,2 µg/mL
same,MIC,Clostridium difficile [6]; Clostridium difficile 3424-5B,1.0 µg/mL
same,MIC,Clostridium difficile [6]; Clostridium difficile 3816,1.0 µg/mL
same,MIC,Clostridium difficile [6]; Clostridium difficile 3950D,1.0 µg/mL
same,MIC,Clostridium difficile [6]; Clostridium difficile 6890,1.0 µg/mL
same,MIC,Clostridium difficile [6]; Clostridium difficile 8484,1.0 µg/mL
same,MIC,Clostridium difficile [6]; Clostridium difficile A-194,1.0 µg/mL
same,MIC,Clostridium difficile [6]; Clostridium difficile A-195,1.0 µg/mL
same,MIC,Clostridium difficile [6]; Clostridium difficile A-196,2 µg/mL
same,MIC,Clostridium difficile [6]; Clostridium difficile A-279,1.0 µg/mL
same,MIC,Clostridium difficile [6]; Clostridium difficile A-280,1.0 µg/mL
same,MIC,Clostridium difficile [6]; Clostridium difficile A-281,2 µg/mL
same,MIC,Clostridium difficile [6]; Clostridium difficile WAL-2112,1.0 µg/mL
same,MIC,Clostridium difficile [6]; Clostridium difficile WAL-3657,1.0 µg/mL
same,MIC,Clostridium difficile [6]; Clostridium difficile WAL-4268,1.0 µg/mL
same,MIC,Streptococcus pyogenes,2 µg/mL
same,MIC,[7],1.0 µg/mL
same,MIC,[8],1.0 µg/mL
same,MIC,Propionibacterium acnes,1.0 µg/mL
same,MIC,Clostridium perfringens,1.0 µg/mL
same,MIC,[9],1.0 µg/mL
same,MIC,Clostridium difficile [10],1.0 µg/mL
same,MIC,Fusobacterium symbiosum,1.0 µg/mL
same,MIC,Bacteroides vulgatis,32 µg/mL
same,MIC,[11],≤ 0.25 µg/mL
A41030 factor E,MIC,[1],64 µg/mL
same,MIC,Bacteroides fragilis; Bacteroides fragilis 111,64 µg/mL
same,MIC,Bacteroides fragilis; Bacteroides fragilis 1877,32 µg/mL
same,MIC,Bacteroides fragilis; Bacteroides fragilis 1936B,64 µg/mL
same,MIC,[2]; [12],1 µg/mL
same,MIC,[2]; [13],1 µg/mL
same,MIC,Haemophilus influenzae; [14],8 µg/mL
same,MIC,Haemophilus influenzae; [15],8 µg/mL
same,possibly additional pKa's,[3],> 10
same,solubility (solvents),Solubility in solvents,soluble in the same solvents as factor A
same,MIC,[4],0.25 µg/mL
same,MIC,Peptococcus prevoti,32 µg/mL
same,MIC,[5],32 µg/mL
same,MIC,Clostridium septicum,0.5 µg/mL
same,MIC,Streptococcus pneumoniae,0.25 µg/mL
same,MIC,Eubacterium aerofaciens,0.5 µg/mL
same,MIC,Bacteroides corrodens,64 µg/mL
same,MIC,Staphylococcus aureus,0.25 µg/mL
same,MIC,Clostridium difficile [6]; Clostridium difficile 78,0.5 µg/mL
same,MIC,Clostridium difficile [6]; Clostridium difficile 107B,0.5 µg/mL
same,MIC,Clostridium difficile [6]; Clostridium difficile 111F,0.5 µg/mL
same,MIC,Clostridium difficile [6]; Clostridium difficile 1153,1.0 µg/mL
same,MIC,Clostridium difficile [6]; Clostridium difficile 2634,1.0 µg/mL
same,MIC,Clostridium difficile [6]; Clostridium difficile 3424-5B,0.5 µg/mL
same,MIC,Clostridium difficile [6]; Clostridium difficile 3816,0.5 µg/mL
same,MIC,Clostridium difficile [6]; Clostridium difficile 3950D,0.5 µg/mL
same,MIC,Clostridium difficile [6]; Clostridium difficile 6890,0.5 µg/mL
same,MIC,Clostridium difficile [6]; Clostridium difficile 8484,0.5 µg/mL
same,MIC,Clostridium difficile [6]; Clostridium difficile A-194,0.5 µg/mL
same,MIC,Clostridium difficile [6]; Clostridium difficile A-195,0.5 µg/mL
same,MIC,Clostridium difficile [6]; Clostridium difficile A-196,1.0 µg/mL
same,MIC,Clostridium difficile [6]; Clostridium difficile A-279,0.5 µg/mL
same,MIC,Clostridium difficile [6]; Clostridium difficile A-280,0.5 µg/mL
same,MIC,Clostridium difficile [6]; Clostridium difficile A-281,1.0 µg/mL
same,MIC,Clostridium difficile [6]; Clostridium difficile WAL-2112,0.5 µg/mL
same,MIC,Clostridium difficile [6]; Clostridium difficile WAL-3657,0.5 µg/mL
same,MIC,Clostridium difficile [6]; Clostridium difficile WAL-4268,0.5 µg/mL
same,MIC,Streptococcus pyogenes,0.25 µg/mL
same,MIC,[7],32 µg/mL
same,MIC,[8],0.5 µg/mL
same,MIC,Propionibacterium acnes,0.5 µg/mL
same,MIC,Clostridium perfringens,1.0 µg/mL
same,MIC,[9],32 µg/mL
same,MIC,Clostridium difficile [10],0.5 µg/mL
same,MIC,Fusobacterium symbiosum,1.0 µg/mL
same,MIC,Bacteroides vulgatis,32 µg/mL
same,MIC,[11],≤ 0.25 µg/mL
